Assay results published in patent US11072619B2, “Pyrazole[1,5-a] pyrimidine derivatives as kinase JAK inhibitors” (CELON PHARMA S.A., priority 2017, dated 2021).

Columns and labels:
Recombinant kinase JAK3 = Recombinant kinase JAK3 (Homo sapiens (Human), UniProt P52333); test: In vitro JAK kinase inhibition assay (ADP-Glo), JAK3; type: biochemical; conditions: 30 μM ATP, peptide IGF-1Rtide, averaged
Description: In Vitro JAK Kinase Inhibition Assay
The effects of the compounds of the invention were analysed in vitro using kinase JAK inhibition assay described below.
Tested compounds were dissolved in 100% DMSO, and obtained stock solutions were serially diluted in the reaction buffer (50 mM Tris pH 7.5, 10 mM MgCl2, 0.25 mM EGTA, 0.1 mM Na3VO4, 0.01% Triton X-100, 2.5 mM DTT). Recombinant kinases JAK1 (ProQinase), JAK2, or JAK3 (Carna Biosciences) were diluted in the dilution buffer (50 mM Tris-HCl pH 7.5, 150 mM NaCl, 10% glycerol, 0.05% Triton X-100, 1 mM DTT) to the final concentration 3 ng/μL (JAK1), 0.1 ng/μL (JAK2), or 0.2 ng/μL (JAK3). 5 μL of obtained solution of the compounds and 5 μL of the solution of respective kinases were added to the well of a 96-well plate. To initiate interaction between tested compounds and an enzyme, the plate was incubated for 10 minutes at 25° C. in a Plate-Thermo-Shaker with orbital stirring at 400 rpm. Wells of a negative control contained all reagents as mentioned above with the exception of tested compounds and kinase, and wells of a positive controls contained all reagents as mentioned above with the exception of tested compounds. Enzymatic reaction was initiated by the addition of 15 μL of the following solution: 5× concentrated reaction buffer (50 mM Tris pH 7.5, 10 mM MgCl2, 0.25 mM EGTA, 0.1 mM Na3VO4, 0.01% Triton X-100, 2.5 mM DTT), water, 30 μM ATP and for particular kinases: JAK1—60 μM peptide IRS-1 (Enzo), JAK2 or JAK3—10 μM peptide IGF-1Rtide (Lipopharm). Then the plate was incubated for 1 hour at 25° C. in a Plate-Thermo-Shaker, with orbital stirring at 400 rpm. Detection of ADP formed in the enzymatic reaction was then performed using ADP-Glo Kinase Assay kit (Promega). For this purpose, to the well of the 96-well plate 25 μL of ADP-Glo Reagent were added, and the plate was incubated for 40 minutes at 25° C. in a Plate-Thermo-Shaker with orbital stirring at 400 rpm. Then to the well of the 96-well plate 50 μL of Kinase Detection Reagent were added and the plate was incubated for 30 minutes at 25° C. in a Plate-Thermo-Shaker with orbital stirring at 400 rpm. After incubation, luminescence intensity was measured using Victor×Light luminometer (Perkin Elmer, Inc.).
On the basis of luminescence measurement in wells containing tested compounds at various concentrations and in control wells, IC50 values were determined. These values were determined with Graph Pad software v. 5.03, by fitting points of the curve using non-linear regression method. Each compound was tested in at least 6 repetitions (6 wells) on two 96-well plates, using at least 3 wells of each control.
Averaged results of kinases JAK inhibition activity for selected compounds of the present invention are presented below in Table 1.

[1] = system: STAT6 protein phosphorylation in TF-1 cells; test: STAT6 phosphorylation inhibition in vitro in TF-1 cells with IL-4; type: cell-based; conditions: Homo sapiens, IL-4 20 ng/mL, 1 hour, Western blot densitometry
Description: Assay of STAT6 Phosphorylation Inhibition In Vitro
(§1) The activity of the compounds of the invention was tested using in vitro assay described below.
Tested compounds were dissolved in 100% DMSO, and obtained stock solutions were serially in OptiMEM medium (Reduced Serum Medium-Thermo Fisher Scientific). TF-1 cells (DSMZ no.: ACC 334) in culture medium (80% RPMI 1640+20% FBS) in the presence of IL-4 at 20 ng/mL were sieved on 12-well plates at 900 μl/well, 700 thousands of cells/well. To a well of the 12-well plate 100 μL of obtained 10× solution of the compounds were added. Cells on 12-well plates were incubated with tested compounds for 1 hour at 37° C., 5% CO2. Subsequently the cells were washed with PBS, lysed in RIPA buffer added with EDTA, proteases and phosphatases inhibitors, and incubated for 5 min on ice. Protein concentration was determined using Pierce BCA Protein Assay Kit (Thermo Fisher Scientific). Protein lysates were separated by electrophoresis (SDS-PAGE) on 8% polyacrylamide gels, then wet-transferred on nitrocellulose membrane and tested proteins were detected in accordance with the instructions of antibody manufacturer.
On the basis of the measurement of chemoluminescence intensity densitometric analysis was performed, results obtained for the cells treated with tested compounds at various concentrations were compared with those obtained for control cells, and IC50 values were determined.
These values were determined with Graph Pad software v. 5.03, by fitting points of the curve using non-linear regression method. Each compound was tested in at least 3 repetitions.

[2] = system: INFγ secreted by lymphocytes T; test: Inhibition of INFγ production by lymphocytes T in vitro; type: cell-based; conditions: Lymphocyte, 48 hours, human CD4+ lymphocytes T; for inhibition at 0.01 µM: 10 nM; for inhibition at 0.1 µM: 100 nM; for inhibition at 1 µM: 1000 nM
Description: Assay for Inhibition of TNFα and INFγ Production by Lymphocytes T In Vitro
as §1
Tested compounds were dissolved in 100% DMSO, and obtained stock solutions were serially diluted with OptiMEM medium (Reduced Serum Medium-Thermo Fisher Scientific). Lymhocytes were isolated from leukocyte top coat layer obtained from human peripheral blood. Isolation of peripheral blood mononuclear cells was performed using Ficoll-Paque+Leucosept gradient method, with lymphocytes isolation using CD4+ T Cell Isolation Kit, and activation using T Cell Activation/Expansion Kit (Miltenyi Biotec). Isolated cells in culture medium (90% RPMI 1640+10% FBS) were sived on 12-well plates at 450 μL/well, 300 thousands/well, and 50 μL of prepared 10× stock solutions of tested compounds were added. After 48 hours supernatant was collected for determination of the level of secreted cytokines. Before determination, cells were centrifuged at 1000 g, 10 min. Determination was performed with flow cytometer FACS Calibur using LEGENDplex Human Th cytokine kit. Results are presented in Table 3 as a percentage of inhibition of TNFα i INFγ cytokines secreted by lymphocytes T with reference to control cells.

Sequence of Recombinant kinase JAK3 (P52333 whole entry): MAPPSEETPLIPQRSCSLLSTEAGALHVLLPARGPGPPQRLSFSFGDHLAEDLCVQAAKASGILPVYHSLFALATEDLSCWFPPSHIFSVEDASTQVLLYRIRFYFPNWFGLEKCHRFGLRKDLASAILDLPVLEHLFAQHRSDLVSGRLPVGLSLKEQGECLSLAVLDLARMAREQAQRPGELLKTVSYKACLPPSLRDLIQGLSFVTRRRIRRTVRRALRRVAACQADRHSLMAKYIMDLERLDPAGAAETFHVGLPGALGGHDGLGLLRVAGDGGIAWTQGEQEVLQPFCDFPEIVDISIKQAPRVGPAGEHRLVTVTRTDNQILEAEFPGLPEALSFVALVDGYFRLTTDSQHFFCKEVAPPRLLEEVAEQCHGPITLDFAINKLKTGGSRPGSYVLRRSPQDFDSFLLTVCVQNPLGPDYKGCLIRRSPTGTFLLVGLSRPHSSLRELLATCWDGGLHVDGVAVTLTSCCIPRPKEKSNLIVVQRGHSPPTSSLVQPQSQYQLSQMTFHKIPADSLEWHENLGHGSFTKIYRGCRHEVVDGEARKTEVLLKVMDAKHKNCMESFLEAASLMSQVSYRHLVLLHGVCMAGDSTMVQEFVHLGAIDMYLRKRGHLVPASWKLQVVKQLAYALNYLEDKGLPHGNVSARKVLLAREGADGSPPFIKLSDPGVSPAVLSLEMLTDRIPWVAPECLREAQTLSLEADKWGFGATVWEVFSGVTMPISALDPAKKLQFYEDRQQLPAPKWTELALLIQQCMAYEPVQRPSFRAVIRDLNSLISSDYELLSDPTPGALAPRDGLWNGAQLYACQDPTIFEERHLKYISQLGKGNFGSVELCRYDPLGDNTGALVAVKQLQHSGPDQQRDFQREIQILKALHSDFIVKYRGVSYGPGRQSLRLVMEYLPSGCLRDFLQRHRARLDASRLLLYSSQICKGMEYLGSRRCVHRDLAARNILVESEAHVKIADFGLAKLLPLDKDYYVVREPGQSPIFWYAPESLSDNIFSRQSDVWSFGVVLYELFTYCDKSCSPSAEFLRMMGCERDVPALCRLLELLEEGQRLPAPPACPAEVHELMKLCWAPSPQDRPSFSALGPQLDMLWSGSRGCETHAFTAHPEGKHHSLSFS

SMILES | IC50 (Recombinant kinase JAK3) [nM] | IC50 [1] [nM] | inhibition at 0.01 µM [2] [%] | inhibition at 0.1 µM [2] [%] | inhibition at 1 µM [2] [%]
COc1cccc(-c2cc3ncc(C(N)=O)c(N[C@@H]4CCN(c5ccc(C#N)nn5)CC4(C)C)n3n2)n1 [Example 11, (R)-7-((1-(6-Cyanopyridazin-3-yl)-3,3-dimethylpiperidin-4-yl)amino)-2-(6-methoxy-pyridin-2-yl)pyrazolo[1,5-a]pyrimidine-6-carboxamide] | 0.03 | 114 | 88.8 | 93.5 | 81.4
Cc1cc(-c2cc3ncc(C(N)=O)c(N[C@@H]4CCN(c5ccc(C#N)nn5)CC4(C)C)n3n2)ccn1 [Example 12, (R)-7-((1-(6-Cyanopyridazin-3-yl)-3,3-dimethylpiperidin-4-yl)amino)-2-(2-methyl-pyridin-4-yl)pyrazolo[1,5-a]pyrimidine-6-carboxamide] | 0.29 | 150 | 86.2 | 88 | 93
COc1ccc(-c2cc3ncc(C(N)=O)c(N[C@@H]4CCN(c5ccc(C#N)nn5)CC4(C)C)n3n2)cn1 [Example 4, (R)-7-((1-(6-Cyanopyridazin-3-yl)-3,3-dimethylpiperidin-4-yl)amino)-2-(6-methoxy-pyridin-3-yl)pyrazolo[1,5-a]pyrimidine-6-carboxamide] | 2.67 | 442 | 80.9 | 86.5 | 95.6
CC1(C)CN(c2ccc(C#N)nn2)CC[C@H]1Nc1c(C(N)=O)cnc2cc(-c3ccc(N4CCOCC4)nc3)nn12 [Example 7, (R)-7-((1-(6-Cyanopyridazin-3-yl)-3,3-dimethylpiperidin-4-yl)amino)-2-(6-morpholinopyridin-3-yl)pyrazolo[1,5-a]pyrimidine-6-carboxamide] | 0.19 | 116 | 73.6 | 74.6 | 98.1
